{"source": "BindingDB's records for patent US9161922", "about": "(Case Western Reserve University, 2015)", "target": "Primary amine oxidase, liver isozyme (Bos taurus, UniProt Q29437)", "sequence (Q29437 17-762 limits assumed)": "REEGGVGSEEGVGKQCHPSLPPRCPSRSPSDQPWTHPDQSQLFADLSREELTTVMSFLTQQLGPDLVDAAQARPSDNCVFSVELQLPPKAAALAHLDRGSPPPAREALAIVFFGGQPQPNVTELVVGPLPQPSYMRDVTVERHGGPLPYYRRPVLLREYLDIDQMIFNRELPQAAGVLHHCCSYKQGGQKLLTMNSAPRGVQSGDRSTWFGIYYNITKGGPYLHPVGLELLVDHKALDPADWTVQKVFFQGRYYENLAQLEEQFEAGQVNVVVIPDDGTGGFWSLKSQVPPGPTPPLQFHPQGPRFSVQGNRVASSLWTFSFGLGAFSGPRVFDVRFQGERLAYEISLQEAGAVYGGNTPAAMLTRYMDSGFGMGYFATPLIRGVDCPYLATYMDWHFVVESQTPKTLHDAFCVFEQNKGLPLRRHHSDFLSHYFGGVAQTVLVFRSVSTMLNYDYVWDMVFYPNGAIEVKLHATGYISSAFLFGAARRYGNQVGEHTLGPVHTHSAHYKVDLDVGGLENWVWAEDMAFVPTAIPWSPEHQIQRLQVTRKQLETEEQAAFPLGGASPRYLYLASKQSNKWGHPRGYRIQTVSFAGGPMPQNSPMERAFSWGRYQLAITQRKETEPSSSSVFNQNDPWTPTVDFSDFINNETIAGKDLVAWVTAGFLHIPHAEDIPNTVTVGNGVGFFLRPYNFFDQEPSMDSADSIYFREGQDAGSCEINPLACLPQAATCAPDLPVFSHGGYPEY", "test": "Inhibition Assay", "conditions": "pH 7.2; 30 °C", "experimental": "In the following Examples, 0.9 mL aliquots of a solution of candidate inhibitor in 100 mM potassium phosphate buffer, pH 7.2 was mixed bovine plasma amine oxidase (0.1 mL, about […]) and incubated at 30° C. aerobically. Aliquots (0.1 mL) were periodically withdrawn using disposable calibrated Drummond micropipettes and diluted with 1.0 mL of benzylamine (5 mM in 50 mM sodium phosphate buffer, pH 7.2) in a 1 cm quartz cuvette (1.5 mL volume). The rate of oxidation of benzylamine to benzaldehyde was measured by recording the increase in absorbance at 250 nm for 1 minute and compared to the rate of benzylamine oxidation in a companion control solution of enzyme without inhibitor. The concentration of active BPAO was estimated from the rate of benzylamine oxidation. Inhibitory potency values (IC50 values) and partition values for inactivation of BPAO were measured at various times as in indicated in the Tables."}
{"smiles": "NCC#CCNCCc1ccccc1", "note": "[US9161922, Table 1, Compound 2]", "values": [{"measurement": "IC50", "result": 500, "unit": "µM"}]}
{"smiles": "NCC#Cc1ccccc1", "note": "[US9161922, Table 1, Compound 3]", "values": [{"measurement": "IC50", "result": 700, "unit": "µM"}]}
{"smiles": "N#CC#CCN", "note": "[US9161922, Table 1, Compound 5]", "values": [{"measurement": "IC50", "result": 13, "unit": "µM"}]}
{"smiles": "NCC#CCN", "note": "[US9161922, Table 1, Compound 6]", "values": [{"measurement": "IC50", "result": 20, "unit": "µM"}]}
{"smiles": "NCC#CC#CCN", "note": "[US9161922, Table 1, Compound 7]", "values": [{"measurement": "IC50", "result": 9, "unit": "µM"}]}
{"smiles": "NC/C=C/CN", "note": "[US9161922, Table 1, Compound 8]", "values": [{"measurement": "IC50", "result": 2000, "unit": "µM"}]}
{"smiles": "NC/C=C(\\Cl)CN", "note": "[US9161922, Table 1, Compound 9]", "values": [{"measurement": "IC50", "result": 24, "unit": "µM"}]}
{"smiles": "CC#CCCN", "note": "[US9161922, Table 2, Compound 2]", "values": [{"measurement": "IC50", "result": 10, "unit": "µM"}]}
{"smiles": "NCCC#Cc1ccccc1", "note": "[US9161922, Table 2, Compound 3]", "values": [{"measurement": "IC50", "result": 13.5, "unit": "µM"}]}
{"smiles": "NCCC#Cc1cccnc1", "note": "[US9161922, Table 2, Compound 6]", "values": [{"measurement": "IC50", "result": 3.6, "unit": "µM"}]}
{"smiles": "NCCC#CCc1ccccc1", "note": "[US9161922, Table 2, Compound 7]", "values": [{"measurement": "IC50", "result": 4.6, "unit": "µM"}]}
{"smiles": "CC#CC(CN)c1ccccc1", "note": "(stereo not drawn) [US9161922, Table 2, Compound 8]", "values": [{"measurement": "IC50", "result": 108, "unit": "µM"}]}
{"smiles": "CC#CCC(N)c1ccccc1", "note": "(stereo not drawn) [US9161922, Table 2, Compound 9]", "values": [{"measurement": "IC50", "result": 6500, "unit": "µM"}]}
